# Experimental data published in patent publication US20020028836A1, “Potassium channel openers” (priority 2000, published 2002).
# Where two headings read alike, the source gives them in different places.
# System: tissue strips obtained from Landrace pig bladders
# Experiment: Functional potassium channel opening activity in isolated bladder strips (field-stimulated twitch)
# Conditions: for Index: ED50 for P1075 divided by ED50 for the test agonist in a given tissue, averaged; for EC50: amount of agent necessary to cause 50% of the agent's maximal response, read-out: ED50 (the source's name); for Emax / Efficacy (% P1075): maximal efficacy relative to P1075, field stimulation 0.05 Hz, 0.5 ms, 20 volts
# Experimental: Compounds were evaluated for functional potassium channel opening activity using tissue strips obtained from Landrace pig bladders.
# Landrace pig bladders were obtained from female Landrace pigs of 9-30 kg. Landrace pigs were euthanized with an intraperitoneal injection of pentobarbital solution, Somlethal®, J. A. Webster Inc., Sterling, Mass. The entire bladder was removed and immediately placed into Krebs Ringer bicarbonate solution (composition, mM: NaCl, 120; NaHCO3, 20; dextrose, 11; KCl, 4.7; CaCl2, 2.5; MgSO4, 1.5; KH2PO4, 1.2; K2EDTA, 0.01, equilibrated with 5% CO2/95% O2pH 7.4 at 37° C.). Propranolol (0.004 mM) was included in all of the assays to block β-adrenoceptors. The trigonal and dome portions were discarded. Strips 3-5 mm wide and 20 mm long were prepared from the remaining tissue cut in a circular fashion. The mucosal layer was removed. One end was fixed to a stationary glass rod and the other to a Grass FT03 transducer at a basal preload of 1.0 gram. Two parallel platinum electrodes were included in the stationary glass rod to provide field stimulation of 0.05 Hz, 0.5 milli-seconds at 20 volts. This low frequency stimulation produced a stable twitch response of 100-500 centigrams. Tissues were allowed to equilibrate for at least 60 minutes and primed with 80 mM KCl. A control concentration response curve (cumulative) was generated for each tissue using the potassium channel opener P1075 as the control agonist. […] After a 60 minute rinsing period, a concentration response curve (cumulative) was generated for the test agonist in the same fashion as that used for the control agonist P1075. The maximal efficacy of each compound (expressed as % relative to P1075) is reported. The amount of agent necessary to cause 50% of the agent's maximal response (ED50) was calculated using “ALLFIT” (DeLean et al., Am. J. Physiol., 235, E97 (1980)), hereby incorporated by reference. Agonist potencies were also expressed as an index relative to P1075. The index was calculated by dividing the ED50 for P1075 by the ED50 for the test agonist in a given tissue. Each tissue was used for only one test agonist, and the indices obtained from each tissue were averaged to provide an average index of potency.
SMILES,EC50 (Sus scrofa),EC50,Index,Emax (Sus scrofa),Efficacy (% P1075)
"CC(Cl)(Cl)C(NC(=O)c1ccc(Cl)cc1)NC(=NC#N)Nc1ccc(C(F)(F)F)nc1 (stereo not drawn) [Example 158, 4-chloro-N-{2,2-dichloro-1-[((cyanoimino){[6-(trifluoromethyl)-3-pyridinyl]amino}methyl)amino]propyl}benzamide]",4.8 µM,–,0.061,92%,–
"CC(Cl)(Cl)C(NC(=O)c1ccc(Cl)cc1)NC(=NC#N)Nc1cccnc1 (stereo not drawn) [Example 116, 4-chloro-N-(2,2-dichloro-1-{[(cyanoimino)(3-pyridinylamino)methyl]amino}propyl)benzamide]",–,3.3 µM,0.028,–,94 % P1075
"CC(Cl)(Cl)C(NC(=O)c1cccc(Cl)c1)NC(=NC#N)Nc1ccc(C(F)(F)F)nc1 (stereo not drawn) [Example 159, 3-chloro-N-{2,2-dichloro-1-[((cyanoimino){[6-(trifluoromethyl)-3-pyridinyl]amino}methyl)amino]propyl}benzamide]",7.9 µM,–,0.013,92%,–

# Second part, led by results:
EC50 (Sus scrofa),EC50,SMILES,Index,Emax (Sus scrofa),Efficacy (% P1075)
4.2 µM,–,"Cc1cccc(C(=O)NC(NC(=NC#N)Nc2ccc(Cl)nc2)C(C)(Cl)Cl)c1 (stereo not drawn) [Example 170, N-(2,2-dichloro-1-{[[(6-chloro-3-pyridinyl)amino](cyanoimino)methyl]amino}propyl)-3-methylbenzamide]",0.012,100%,–
–,1.2 µM,"CC(C)(C)CC(NC(=O)c1ccc(Cl)cc1)NC(=NS(=O)(=O)C(F)(F)F)Nc1cccnc1 (single isomer, unassigned; (+)) [Example 186, (+) 4-chloro-N-{3,3-dimethyl-1-[((3-pyridinylamino){[(trifluoromethyl)sulfonyl]imino}methyl)amino]butyl}benzamide]",2.1,–,66 % P1075
